The values that follow come from patent US8859783B2, “Indirubin-3′-oxime derivatives as potent cyclin dependent kinase inhibitors” (Anygen Co., Ltd., priority 2010, dated 2014).

pIC50: −log10 of the molar value. Values joined by “and” are separate entries in the source; they are usually repeats but may differ in a detail not shown here. Equal entries are not always repeated.

In one test the target is T1, CDK2/cyclin E (Homo sapiens, UniProt P24941).
T1 construct: purchased Milipore (Billerica, Mass.)
In words: CDK2/cyclin E kinase assay. It counts as biochemical. The settings on record: for pIC50: ten concentrations, dose response curves, read-out: CDK2/cyclin E inhibitory activity IC50; for CDK2 potency relative to compound 1: higher potency than 1. The protocol: CDK1/cyclin B, CDK2/cyclin E were purchased from Milipore (Billerica, Mass.). The kinase activity was tested in buffer (8 mM MOPS pH 7.0, 0.2 mM EDTA, 10 mM MgAcetate), with 0.1 mg/mL histone H1, in the presence of 45 µM [—^33P] ATP (500 cpm/pmol) for CDK1 or 120 μM [γ—^33P] ATP (500 cpm/pmol) for CDK2 in a final reaction volume of […]. The reaction was initiated by the addition of the MgATP mix. After incubation for 40 min at 30° C., the reaction was stopped by the addition of 5 μL of 3% phosphoric acid solution. 10 μL aliquots of supernatant were spotted onto 2.5 cm×3 cm pieces of Whatman […] phosphocellulose paper, and 20 s later, the filters were washed three times for 5 min in 75 mM phosphoric acid and once in methanol prior to drying. The […] filters were counted in the presence of 1 mL of ACS (Amersham) scintillation fluid. The activities are usually expressed as a percentage of the maximal activity, i.e., in the absence of inhibitors. Controls were applied with appropriate dilutions of DMSO.

The test system of another test is K562 human leukemia cell. In words: SRB cell proliferation assay, K562. In kind it is cell-based. The settings on record: K562, 72 h, 3 days. The protocol: (§1) ^a A series of indirubin derivatives were tested at five concentrations for their effects on various human cancer cell lines using SRB assay, as described in the Experimental Section.
(§2) Cells (A549, HT1080, HCT116, K562, SNU638, KB, MCF-7) were counted, diluted to 5×10^4 cells/mL with fresh medium (MEME, DMEM or RPMI containing 10% FBS), and added 190 μL of cell suspension to 96-well plates containing various concentrations of test compounds (10 μL in 10% aqueous DMSO). Test plates were incubated for 3 days at 37° C. in CO2 incubator. For zero day controls, cells were incubated for 30 min at 37° C. in CO2 incubator. All treatments were performed in triplicate. After the incubation periods, cells were fixed with 50 μL of cold 50% TCA at 4° C. for 30 min, washed 5 times with tap water, and air-dried. The fixed cells were stained with 0.4% SRB solution in 1% aqueous acetic acid at room temperature for 1 h. Free SRB solution was then removed by rinsing 5 times with 1% acetic acid, and air-dried. The bound dye was dissolved with 200 µL of 10 mM Tris-base (pH 10.0), and absorbance was determined at 515 nm using an ELISA microplate reader. Finally, the absorbance values obtained with each of the treatment procedures were averaged, and the average values obtained with the zero day control were subtracted.

Test [1] relates to KB human nasopharyngeal cancer cell. In words: SRB cell proliferation assay, KB. It counts as cell-based. The conditions noted are these: 72 h, 3 days. As for the experimental part:
as §1, §2

The test system of test [2] is HCT116 human colon cancer cell. In words: SRB cell proliferation assay, HCT116. In kind it is cell-based. The settings on record: 3 days. As for the experimental part:
as §1, §2

Test [3] relates to SNU638 human stomach cancer cell. Description: SRB cell proliferation assay, SNU638. In kind it is cell-based. The settings on record: SNU-638, 72 h, 3 days. The protocol: as §1, §2
In test [4] the test system is MCF-7 human breast cancer cell. In words: SRB cell proliferation assay, MCF-7. The conditions noted are these: MCF7, 72 h, 3 days. In kind it is cell-based. As for the experimental part:
as §1, §2

The subject of test [5] is A549 human lung cancer cell. In words: SRB cell proliferation assay, A549. In kind it is cell-based. The conditions noted are these: A549, 72 h, 3 days. As for the experimental part: as §1, §2
Test [6] concerns HT1080 human fibro sarcoma cell. In words: SRB cell proliferation assay, HT1080. In kind it is cell-based. The settings on record: HT-1080, 72 h, 3 days. As for the experimental part:
as §1, §2

Test [7] concerns several human cancer cell lines. Description: SRB cell proliferation assay, summary over cell lines. It counts as cell-based. The conditions noted are these: Homo sapiens, range over cell lines; read-out: anti-proliferative IC50, range over cancer cell lines. As for the experimental part:
as §1, §2

As to `O=C1Nc2ccc([N+](=O)[O-])cc2/C1=C1/Nc2ccccc2C1=NO` [Compound 1, 5-nitroindirubin-3′-oxime, reference compound], the pIC50 on CDK2/cyclin E is 8.15 and 8.13.

For `O=C1Nc2ccc(Cl)cc2/C1=C1/Nc2ccc(O)cc2C1=NO` [Compound 11a, (2′Z, 3′E)-5′-Hydroxy-5-chloro-indirubin-3′-oxime], the pIC50 with K562 human leukemia cell is 4.91; on CDK2/cyclin E it was 8.28; in [1] it was 4.99; in test [2] (Homo sapiens, HCT-116, 72 h), 5.46; in [3] it was 5.29; in [4] it was 4.97. In addition, the pIC50 in test [5] was 4.79; in [6], 5.53.

Turning to `O=C1Nc2ccc(F)cc2/C1=C1/Nc2ccc(O)cc2C1=NO` [Compound 11c, (2′Z, 3′E)-5′-Hydroxy-5-fluoro-indirubin-3′-oxime], the pIC50 in the test on K562 human leukemia cell is 5.85; on CDK2/cyclin E, 8.65; in test [1], 5.34; in test [2] (Homo sapiens, HCT-116, 72 h), 5.78; in test [3], 5.68; in [4], 5.59. Besides, the pIC50 in [5] is 5.39; in test [6], 6.17.

In the case of `O=C1Nc2ccc(OC(F)(F)F)cc2/C1=C1/Nc2ccc(O)cc2C1=NO` [Compound 11d, (2′Z, 3′E)-5′-Hydroxy-5-trifluoromethoxy-indirubin-3′-oxime], the pIC50 in the test with K562 human leukemia cell is 5.23; at CDK2/cyclin E, 8.08; in [1], 5.24; in [2] (Homo sapiens, HCT-116, 72 h) it was 5.65; in [3], 5.53; in test [4], 5.38. The pIC50 in [5] is 4.77; in test [6] it was 5.64.

On to `O=C1Nc2ccc(Cl)cc2/C1=C1/Nc2ccc(Cl)cc2C1=NO` [Compound 12a, (2′Z, 3′E)-5′-Chloro-5-chloro-indirubin-3′-oxime], for which the pIC50 in the test with K562 human leukemia cell is 4.76; on CDK2/cyclin E, 7.95; in [1], 4.92; in test [2] (Homo sapiens, HCT-116, 72 h), 5.73; in test [3], 5.59; in test [4], 5.21. The pIC50 in test [5] was under 4.70; in [6], 4.91.

`O=C1Nc2ccc(F)cc2/C1=C1/Nc2ccc(Cl)cc2C1=NO` [Compound 12c, (2′Z, 3′E)-5′-Chloro-5-fluoro-indirubin-3′-oxime]: the pIC50 was 4.83 in the test on K562 human leukemia cell; 8.00 at CDK2/cyclin E; 5.44 in test [1]; 5.77 in test [2] (Homo sapiens, HCT-116, 72 h); 5.64 in [3]; 5.46 in test [4]. The values for the pIC50 in test [5] and in test [6] were 4.72 and 5.44, respectively.

Take `O=C1Nc2ccc(OC(F)(F)F)cc2/C1=C1/Nc2ccc(Cl)cc2C1=NO` [Compound 12d, (2′Z, 3′E)-5′-Chloro-5-trifluoromethoxy-indirubin-3′-oxime]: the pIC50 was under 4.70 in the test on K562 human leukemia cell; 7.12 on CDK2/cyclin E; 5.55 in [1]; 5.42 in test [2] (Homo sapiens, HCT-116, 72 h); 5.57 in test [3]; 5.38 in [4]. For the same molecule, the values for the pIC50 in [5] and in test [6] were under 4.70 and 4.75, respectively.

On to `O=C1Nc2ccc(Cl)cc2/C1=C1/Nc2ccc(F)cc2C1=NO` [Compound 13a, (2′Z, 3′E)-5′-Fluoro-5-chloro-indirubin-3′-oxime], for which the pIC50 in the test with K562 human leukemia cell is 5.15; on CDK2/cyclin E, 8.10; in test [1] it was 5.04; in test [2] (Homo sapiens, HCT-116, 72 h), 5.48; in test [3], 5.20; in test [4] it was 5.15. Also, the pIC50 in test [5] is under 4.70; in test [6] it was 5.27.

Take `O=C1Nc2ccc([N+](=O)[O-])cc2/C1=C1/Nc2ccc(F)cc2C1=NO` [Compound 13b, (2′Z, 3′E)-5′-Fluoro-5-nitro-indirubin-3′-oxime]: the pIC50 in the test on K562 human leukemia cell is 6.34; at CDK2/cyclin E, 8.77; in [7], 5.48 to 6.70; in test [1] it was 6.05; in [2] it was 6.55; in test [2] (Homo sapiens, HCT-116, 72 h), about 6.52. Also, the pIC50 is 6.03 in [3], 6.05 in test [4], 6.24 in test [5] and 6.19 in [6]. On CDK2/cyclin E, the “CDK2 potency relative to compound 1” value was “approximately 4 fold”.

Consider `O=C1Nc2ccc(F)cc2/C1=C1/Nc2ccc(F)cc2C1=NO` [Compound 13c, (2′Z, 3′E)-5′-Fluoro-5-fluoro-indirubin-3′-oxime], for which the pIC50 was 4.80 with K562 human leukemia cell; 8.74 at CDK2/cyclin E; 4.88 in [1]; 4.87 in test [2] (Homo sapiens, HCT-116, 72 h); 5.65 in [3]; 5.18 in test [4]. For the same molecule, the pIC50 in [5] is 4.99; in test [6], 5.07. Moreover, the “CDK2 potency relative to compound 1” value on CDK2/cyclin E is on record as “approximately 4 fold”.

For the molecule `O=C1Nc2ccc(OC(F)(F)F)cc2/C1=C1/Nc2ccc(F)cc2C1=NO` [Compound 13d, (2′Z, 3′E)-5′-Fluoro-5-trifluoromethoxy-indirubin-3′-oxime], the pIC50 was 5.82 in the test with K562 human leukemia cell; 7.22 at CDK2/cyclin E; 5.42 in test [1]; 5.82 in [2] (Homo sapiens, HCT-116, 72 h); 5.72 in test [3]; 5.39 in test [4]. The pIC50 in test [5] is 4.70; in test [6], 5.40.

In the case of `Cc1ccc2c(c1)C(=NO)/C(=C1/C(=O)Nc3ccc(Cl)cc31)N2` [Compound 14a, (2′Z, 3′E)-5′-Methyl-5-chloro-indirubin-3′-oxime], the pIC50 with K562 human leukemia cell was under 4.70; in test [1], 5.29; in test [2] (Homo sapiens, HCT-116, 72 h) it was 4.73; in test [3] it was 4.90; in test [4], 5.06; in test [5], under 4.70. For the same molecule, the pIC50 in [6] is under 4.70.

As to `Cc1ccc2c(c1)C(=NO)/C(=C1/C(=O)Nc3ccc(F)cc31)N2` [Compound 14c, (2′Z, 3′E)-5′-Methyl-5-fluoro-indirubin-3′-oxime], the pIC50 was under 4.70 in the test on K562 human leukemia cell; 4.97 in [1]; under 4.70 in test [2] (Homo sapiens, HCT-116, 72 h); 4.94 in [3]; 4.98 in test [4]; under 4.70 in test [5]. The molecule further gave a pIC50 in test [6] of under 4.70.

As for `Cc1ccc2c(c1)C(=NO)/C(=C1/C(=O)Nc3ccc(OC(F)(F)F)cc31)N2` [Compound 14d, (2′Z, 3′E)-5′-Methyl-5-trifluoromethoxy-indirubin-3′-oxime], the pIC50 was under 4.70 with K562 human leukemia cell; 5.09 in test [1]; under 4.70 in test [2] (Homo sapiens, HCT-116, 72 h); under 4.70 in test [3]; 5.14 in test [4]; under 4.70 in [5]. For the same molecule, the pIC50 in test [6] was under 4.70.

Turning to `COc1ccc2c(c1)C(=NO)/C(=C1/C(=O)Nc3ccc([N+](=O)[O-])cc31)N2` [Compound 16a, (2′Z, 3′E)-5′-Methoxy-5-nitro-indirubin-3′-oxime], the pIC50 in the test on K562 human leukemia cell was under 4.70; at CDK2/cyclin E, 5.53; in test [1] it was under 4.70; in [2] (Homo sapiens, HCT-116, 72 h), under 4.70; in [3] it was under 4.70; in test [4], under 4.70. Besides, the pIC50 in [5] and in [6] was under 4.70 each time.

`COc1ccc2c(c1)C(=NO)/C(=C1/C(=O)Nc3ccc(OC(F)(F)F)cc31)N2` [Compound 16c, (2′Z, 3′E)-5′-Methoxy-5-trifluoromethoxy-indirubin-3′-oxime]: the pIC50 was under 4.70 in the test on K562 human leukemia cell; 5.06 at CDK2/cyclin E; 4.70 in test [1]; under 4.70 in [2] (Homo sapiens, HCT-116, 72 h); under 4.70 in test [3]; 4.89 in [4]. Moreover, the pIC50 in test [5] and in test [6] was under 4.70 in each case.
